# Values of other authors as cited in US6107305A, “Use of pyrazolo [3,4-b] pyridine as cyclin dependent kinase inhibitors” (Bristol-Myers Squibb Company, priority 1998, dated 2000).
# Legend:
# apoptosis = details: J. Cell Sci., 108, 2897 (1995)
Compound,synergism with known cytotoxic agents in inducing apoptosis (apoptosis),effect of sequence of administration with anticancer agents on cytotoxic activity (cytotoxic activity)
Cn1cnc2c(NCc3ccccc3)nc(NCCO)nc21 [olomucine],act synergistically with known cytotoxic agents in inducing apoptosis,–
CN1CC[C@H](c2c(O)cc(O)c3c(=O)cc(-c4ccccc4Cl)oc23)[C@H](O)C1 [flavopiridol],–,affected by the sequence of administration with anticancer agents
